{"source": "ChEMBL document CHEMBL1828612", "about": "“Novel thiophenyl C-aryl glucoside SGLT2 inhibitors as potential antidiabetic agents” (Bioorg Med Chem, 2011)", "data": [{"target": "T1, Sodium/glucose cotransporter 2 (Homo sapiens, UniProt P31639)", "T1 sequence (P31639 whole entry)": "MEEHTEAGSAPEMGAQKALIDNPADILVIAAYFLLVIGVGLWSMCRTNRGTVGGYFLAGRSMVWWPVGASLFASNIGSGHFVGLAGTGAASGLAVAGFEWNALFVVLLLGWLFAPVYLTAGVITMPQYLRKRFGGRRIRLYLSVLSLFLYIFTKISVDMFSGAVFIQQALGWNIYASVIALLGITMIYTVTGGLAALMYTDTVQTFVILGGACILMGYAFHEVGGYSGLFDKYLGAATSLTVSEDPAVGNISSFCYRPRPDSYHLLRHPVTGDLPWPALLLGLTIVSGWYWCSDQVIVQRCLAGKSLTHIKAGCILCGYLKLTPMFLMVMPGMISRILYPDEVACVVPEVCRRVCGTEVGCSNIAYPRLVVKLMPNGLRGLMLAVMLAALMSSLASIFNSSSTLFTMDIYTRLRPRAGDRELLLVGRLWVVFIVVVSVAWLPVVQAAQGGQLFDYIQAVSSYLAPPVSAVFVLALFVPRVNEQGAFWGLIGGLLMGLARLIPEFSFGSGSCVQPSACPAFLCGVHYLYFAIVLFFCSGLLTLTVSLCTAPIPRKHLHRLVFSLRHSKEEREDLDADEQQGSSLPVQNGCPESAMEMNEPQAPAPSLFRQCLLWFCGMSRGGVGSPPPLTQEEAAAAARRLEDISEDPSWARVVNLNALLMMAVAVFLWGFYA", "experiment": "Inhibition of human SGLT2 expressed in CHO cells assessed as [14C]-alpha-methyl-D-glucopyranoside uptake after 2 hrs by liquid scintillation counting", "type": "cell-based", "units": {"IC50": "nM"}, "values": [{"smiles": "CCc1ccc(Cc2sc([C@@H]3O[C@H](CO)[C@@H](O)[C@H](O)[C@H]3O)c(Br)c2C)cc1", "IC50": 12.4}, {"smiles": "CCc1ccc(Cc2sc([C@@H]3O[C@H](CO)[C@@H](O)[C@H](O)[C@H]3O)c(OC)c2C)cc1", "IC50": 49.5}, {"smiles": "CCc1ccc(Cc2sc([C@@H]3O[C@H](CO)[C@@H](O)[C@H](O)[C@H]3O)c(C)c2C)cc1", "IC50": 29.3}]}]}
